PMC11078216, “Discovery of potent and selective activity-based probes (ABPs) for the deubiquitinating enzyme USP30” (RSC Chemical Biology, 2024)

Biological target: T1, ALDH1A2 (Homo sapiens, UniProt O94788)
T1 construct: endogenous in cells; host or cells: HEK293T
T1 sequence (O94788 1-518): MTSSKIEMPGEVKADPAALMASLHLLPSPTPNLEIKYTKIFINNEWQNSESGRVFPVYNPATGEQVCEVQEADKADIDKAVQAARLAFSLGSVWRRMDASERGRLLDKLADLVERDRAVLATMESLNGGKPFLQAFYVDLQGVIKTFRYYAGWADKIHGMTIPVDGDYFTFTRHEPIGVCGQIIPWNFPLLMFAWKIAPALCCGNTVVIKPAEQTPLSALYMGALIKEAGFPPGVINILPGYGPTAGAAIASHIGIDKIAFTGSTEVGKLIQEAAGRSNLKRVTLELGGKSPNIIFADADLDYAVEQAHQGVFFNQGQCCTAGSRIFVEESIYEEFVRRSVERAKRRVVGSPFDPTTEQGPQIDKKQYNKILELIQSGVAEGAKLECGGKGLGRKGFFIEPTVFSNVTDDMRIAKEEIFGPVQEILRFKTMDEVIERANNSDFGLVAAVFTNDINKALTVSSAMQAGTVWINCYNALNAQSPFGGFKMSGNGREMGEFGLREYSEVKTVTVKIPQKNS
Assay: ABPP chemical proteomics (LC-MS/MS) in HEK293T cells
Assay type: cell-based
Experimental: To explore the selectivity of IMP-2587 and IMP-2586 across the whole proteome, we performed quantitative activity-based protein profiling (ABPP) in HEK293T cells following treatment with IMP-2587 or IMP-2586 (Fig. 3a). After ABP incubation, cells were lysed, and probe-labelled proteins were ligated to biotinylated capture reagents.[27] […] USP30 was outcompeted by corresponding parent inhibitors for each ABP (Fig. 5b and d and Tables S3 and S5, ESI ^†), confirming the high potency and rapid engagement of IMP-2587 and IMP-2586 in cells. […] DESI1 and DESI2 are small ubiquitin-related modifier (SUMO) proteases,[3,29–32] and IMP-2587 and IMP-2586 may offer a starting point for future development of DESI ABPs. […]
d) Live cell probe incubation, lysate click chemistry and precipitation 6-well HEK293T cells were incubated with media containing compounds ABP 2 and ABP 4 at indicated concentrations for 1 h at 37 °C. The cells were washed with PBS and lysed with lysis buffer (50 μL (1% (v/v) Triton X-100, 0.1% (w/v) sodium dodecyl sulfate (SDS), EDTA-free complete protease inhibitor cocktail (1×, Roche) in PBS on ice for 10 min. The lysates were scraped and transferred to corresponding Lo-Bind Eppendorfs. Each lysate was sonicated for 1 minute, and the samples centrifuges at 5,000 x g at 4 °C for 5 minutes to pellet insoluble cellular debris. The supernatant was collected, and protein concentration was determined using the DC Protein Assay (Bio-Rad) as per manufacturer’s instructions, and normalised to lowest concentrated sample (e.g. 1 mg/mL, using lysis buffer). The following “click mixture” was prepared separately, preparing 6 μL for every 100 μL of […]
Capture reagent (AzRB/AzT for ABP 2, YnT/YnB for ABP 4 10 mM in DMSO, 1 vol; final concentration […]
CuSO4 (50 mM in water, 2 vol; final concentration in reaction 1 mM)
TCEP (50 mM in water, 2 vol; final concentration in reaction 1 mM)
TBTA (10 mM in DMSO, 1 vol; final concentration in reaction 100 µM)
The click mixture was vortexed and incubated at room temperature for 2 min before 6 μL of the mixture was added to every 100 μL of lysate. The reaction mixtures were shaken at room temperature for 1 h before being quenched with EDTA (500 mM in H2O) to a final concentration of 10 mM.
Proteins were precipitated by adding H2O (1 vol), MeOH (2 vol) and CHCl3 (0.5 vol), vortexing briefly then centrifuging at 17,000 × g for 5 min. The top H2O/MeOH layer was discarded and the middle layer of protein pellet and lower CHCl3 layer retained. The suspension was washed with MeOH (300 μL), and sonicated to break up the pellet. The proteins were pelleted by centrifugation at 10,000–17000 × g for 5–10 min or until a compact pellet was formed. The protein pellet was washed once more with MeOH (1 mL). The pellet was resuspended by sonicating and completely dissolving in 1% (w/v) SDS in PBS (to 5 mg/mL protein) before being made up to 1 mg/mL protein with PBS.
The lysate samples (10-20 μg) were mixed with 4× Laemmli sample loading buffer (250 mM Tris -HCl pH 6.8, 30% (v/v) glycerol, 10% (w/v) SDS, 0.05% (w/v) bromophenol blue) supplemented with 20% v/v β-mercaptoethanol (BME) and boiled for 10 min at 95 °C. The resulting protein samples were separated according to the protocol in section 3.2.c. Gel were imaged on a Typhoon imager (GE Healthcare; λEx 532 nm, λEm 575 nm for TAMRA. For protein loading quantification, gels were stained with Coomassie blue staining solution overnight, rinsed with water and imaged on an ImageQuant™ LAS 4000 imager (GE Healthcare). f) Neutravidin biotin enrichment (Affinity pull-down)
Click chemistry and precipitation steps were carried out as described in section 3.2.d, on at least 400ug of protein per sample. The pellet was resuspended by sonicating and completely dissolving in 1% (w/v) SDS in HEPES 50 mM pH 8.0, before being made up to 1 mg/mL protein with HEPES 50 mM pH 8.0 to […]
achieve a final concentration of 0.2% SDS. 20uL of each samples was collected as TL (Total lysate) […]
samples. […]

Structure (SMILES): N#CN1CC[C@@H](NC(=O)c2cc(-c3ccccc3Oc3ccc(N=[N+]=[N-])cc3)n[nH]2)C1 [IMP-2586]
- Difference (log2 fold change of enrichment) (IMP-2586 labelling vs DMSO, 30 nM, 10 min, HEK293T (Table S4, Fig.5c)): 3.54

Structure (SMILES): C#Cc1cccc(-c2cc(NC(=O)CC3CCN(C#N)C3)on2)c1 (stereo not shown) [IMP-2587]
- Difference (log2 fold change of enrichment) (IMP-2587 labelling vs DMSO, 30 nM, 10 min, HEK293T (Table S2, Fig.5a)): 3.97

Structure (SMILES): N#CN1CC[C@H](CC(=O)Nc2cc(-c3cccc(Cl)c3)no2)C1 [compound 1, reference compound]
- Difference (log2 fold change of enrichment) (compound 1 out-competition with IMP-2587 labelling, HEK293T (Table S3, Fig.5b)): -3.93

Structure (SMILES): N#CN1CC[C@@H](NC(=O)c2cc(-c3ccccc3Oc3ccccc3)n[nH]2)C1 [compound 3, reference compound]
- Difference (log2 fold change of enrichment) (compound 3 out-competition with IMP-2586 labelling, HEK293T (Table S5, Fig.5d)): -2.44
